# Marks after values point to notes of the source that are not given here.
# Experiments:
# Type in all cases: cell-based
# cells = assay: Cell toxicity, XTT assay
# Excerpt: (§1) The results of our discovery provide support for antimicrobial activity of 3-(4-chlorophenyl)-2-(dichloroamino)-2-methylpropane-1-sulfonic acid in 0.9% saline at pH 3.5. […] In contrast, cell toxicity is seen at a 1000-fold higher range in the mM range.
# [1] = Concentration dependence of antimicrobial activity; conditions: 0.9% saline at pH 3.5
# Excerpt: as §1
# [2] = system: Staphylococcus aureus (MCC 91731); assay: Antimicrobial activity, minimum biocidal concentration; conditions: S. aureus MCC 91731 (*), 1 h
# Procedure: (§2) To determine antimicrobial activity, we use Escherichia coli (ATCC 25922), Staphylococcus aureus (ATCC 29213), Pseudomonas aeruginosa (ATCC 27853), and Candida albicans (ATCC 10231) in primary screening. In addition, we use Staphylococcus aureus (MCC 91731), Pseudomonas aeruginosa (MCC 4438), and Candida albicans (MCC 50319), provided by Alcon Laboratories, Fort Worth, Tex. The microbial cultures are diluted in sterile saline pH 4 to prepare inocula. […] Bacterial plating on Petri dishes (Tryptic Soy agar or Saboraud's Dextrose agar) is performed immediately after the designated exposure after neutralization of the test article dilutions in Dey-Engley Broth. Plates are incubated at 37° C., and the numbers of bacteria are counted by direct colony count to quantitate the surviving bacteria as CFU/mL. Positive growth controls are made with sterile 0.9% saline. All compounds are tested three times. The results are tabulated to show the comparison of antimicrobial effectiveness range of the compounds.
# [3] = system: Pseudomonas aeruginosa (MCC 4438); assay: as above; conditions: P. aeruginosa MCC 4438 (#), 1 h
# Procedure: as §2, with “The microbial cultures are diluted in sterile saline pH 4 to prepare inocula.” left out
# [4] = system: Candida albicans (MCC 50319); assay: as above; conditions: C. albicans MCC 50319 (+), 1 h
# Procedure: as §2, with “The microbial cultures are diluted in sterile saline pH 4 to prepare inocula.” left out
# [5] = system: mouse fibroblast cells (ATCC CCL-1, L929); assay: Cytotoxicity, WST-8 colorimetric assay; conditions: 60 min exposure
# Procedure: Cytotoxicity is assessed by a colorimetric assay system using the Dojindo™ cell counting kit containing 2-(2-methoxy-4-nitrophenyl)-3-(4-nitrophenyl)—S—(2,4-disulfophenyl)-2H-tetrazolium, monosodium salt (WST-8). In this assay, the WST-8 reagent is bioreduced by cellular dehydrogenases to a formazan product that is highly soluble in tissue culture medium. The orange formazan, which is produced only by live cells, is a direct measure of cell viability and can be read spectrophotometrically (for example, evaluation of a soluble tetrazolium/formazan assay for cell growth and drug sensitivity in culture using human and other tumor cell lines is described by Scudiero D A, Shoemaker R A H, Paul K D, Monks A, Tierney S, Nofziger T H, Currens M J, Seniff D, Boyd M R. Cancer Res. 1988 Sep. 1; 48(17):4827-33). Similar approaches for determining the cell viability are known in the art.
# In a standard assay, mouse fibroblast cells (ATCC CCL-1, L929), are cultured in Minimum Essential Medium, α-medium supplemented with 10% heat inactivated fetal bovine serum, L-glutamine, penicillin and streptomycin. Cells are trypsinized and counted under the microscope and seeded at 1.5×10^4 total cells per 100 μL per well of a flat-bottom 96-well plate in order to achieve ˜80% confluence after overnight incubation at 37° C. On the day of the assay, the tissue culture medium is removed and replaced with 30 μL of fresh medium.
# Test articles are prepared as 2-fold serial dilutions and 170 μL, of each dilution is added into each of 4-wells (total volume per well=200 μL). The test plate is then returned to the 37° C. incubator for 60 min. Immediately after the exposed time, test article from each well is replaced with 200 μL of fresh media. Plates are incubated at 37° C. for 18-20 hours. The following day growth medium is replaced with 100 μL/well of fresh medium containing 10/100 μL WST-8 reagent. Cells are incubated under growth conditions (5% CO2 at 37° C. humidified incubator), protected from light, until color development is achieved (usually 1-4 hours). Absorbance is read at 450 nm with reference wavelength at 750 nm using Molecular Device SpectraMax M5 plate reader. Untreated or vehicle only treated cells receiving WST-8 reagent serve as positive cell proliferation controls.
# The CT50 value for each compound was calculated from the absorbance values (A450-750) and is defined as the concentration of test article that results in survival of 50% of the cells following treatment. The absorbance A450-750 from each well of untreated cells and from each well within the dilution series was measured. To calculate the CT50 for each compound, all compound concentrations were first log-transformed using GraphPad Prism4 (ver 4.03) software. Next, a non-linear regression (curve fit) analysis was performed on all the absorbance data measured from the dilution series, including the absorbance data obtained from wells of the untreated control cells. For each dilution within the dilution series, an average A450-750 was calculated from the four replicate wells. The average A450-750 data were plotted on a y-axis against the log-transformed compound concentration on the x-axis, and the CT50 value calculated from the resulting best-fit curve.
# [6] = system: Candida albicans (ATCC 10231); assay: Antimicrobial activity, minimum biocidal concentration; conditions: C. albicans 10231, pH 4 (Sal), 1 h
# Procedure: (§3) To determine antimicrobial activity, we use Escherichia coli (ATCC 25922), Staphylococcus aureus (ATCC 29213), Pseudomonas aeruginosa (ATCC 27853), and Candida albicans (ATCC 10231) in primary screening. In addition, we use Staphylococcus aureus (MCC 91731), Pseudomonas aeruginosa (MCC 4438), and Candida albicans (MCC 50319), provided by Alcon Laboratories, Fort Worth, Tex. The microbial cultures are diluted in sterile saline pH 4 to prepare inocula. Test compounds are titrated by stepwise two-fold dilutions in sterile saline pH 4, 1.0×10^5 to 1.0×10^6 Colony Forming Units (CFU)/mL bacteriamicrobe is added to each tube, mixed by gentle vortexing, and then incubated at room temperature for 1 h. Bacterial plating on Petri dishes (Tryptic Soy agar or Saboraud's Dextrose agar) is performed immediately after the designated exposure after neutralization of the test article dilutions in Dey-Engley Broth. Plates are incubated at 37° C., and the numbers of bacteria are counted by direct colony count to quantitate the surviving bacteria as CFU/mL. Positive growth controls are made with sterile 0.9% saline. All compounds are tested three times. The results are tabulated to show the comparison of antimicrobial effectiveness range of the compounds.
# [7] = system: Staphylococcus aureus (ATCC 29213); assay: Antimicrobial activity, minimum bactericidal/biocidal concentration; conditions: S. aureus 29213, pH 4 (Sal), 1 h
# Procedure: as §3
# [8] = system: Escherichia coli (ATCC 25922); assay: as above; conditions: E. coli 25922, pH 4 (Sal), 1 h
# Procedure: as §3
Structure (SMILES),Minimum Biocidal Concentration (MBC) (≧99.9% kill) ([2]; pH 4 (Sal)),Minimum Biocidal Concentration (MBC) (≧99.9% kill) ([3]; pH 4 (Sal)),CT50 (concentration that results in survival of 50% of the cells) ([5]; pH 4 (Sal)) [mM],Minimum Biocidal Concentration (MBC) (≧99.9% kill) [6] [µg/mL],Minimum Biocidal Concentration (MBC) (≧99.9% kill) [7] [µg/mL],Minimum Biocidal Concentration (MBC) (≧99.9% kill) [8] [µg/mL],other results
"CC(Cc1ccc(Cl)cc1)(CS(=O)(=O)O)N(Cl)Cl (stereo not shown) [Compound 570, 3-(4-chlorophenyl)-2-(dichloroamino)-2-methylpropane-1-sulfonic acid]",,,,,,,"cell toxicity range relative to antimicrobial range (cells): 1000 fold; tolerance of treatment, cell proliferation versus untreated control cells (cells; XTT assay): able to tolerate the treatment and be able to go through normal cell proliferation cycles; antimicrobial activity [1]: considerable in a μM range"
"O=S(=O)(O)CC1(N(Cl)Cl)CCCCCC1 [Compound 601, (1-(Dichloroamino)cycloheptyl)methanesulfonic acid]",0.25* μg/mL,0.5# μg/mL,,,,,
"CC1(N(Cl)Cl)CCCCC1S(=O)(=O)O (stereo not shown) [Compound 611, 2-(Dichloroamino)-2-methylcyclohexane-1-sulfonic acid]",1* μg/mL,1# μg/mL,0.25,,,,Minimum Biocidal Concentration (MBC) (≧99.9% kill) ([2]; pH 7 (PBS)): 64* μg/mL; Minimum Biocidal Concentration (MBC) (≧99.9% kill) ([3]; pH 7 (PBS)): 32# μg/mL; Minimum Biocidal Concentration (MBC) (≧99.9% kill) ([4]; pH 4 (Sal)): 0.5+ μg/mL; Minimum Biocidal Concentration (MBC) (≧99.9% kill) ([4]; pH 7 (PBS)): 64+ μg/mL; CT50 (concentration that results in survival of 50% of the cells) ([5]; pH 7 (PBS)): 4.6 mM
"CC(C)(COC(=O)CCS(=O)(=O)O)N(Cl)Cl [Compound 614, 3-(2-(Dichloroamino)-2-methylpropoxy)-3-oxopropane-1-sulfonic acid]",1* μg/mL,4# μg/mL,0.43,,,,Minimum Biocidal Concentration (MBC) (≧99.9% kill) ([2]; pH 7 (PBS)): 128* μg/mL; Minimum Biocidal Concentration (MBC) (≧99.9% kill) ([3]; pH 7 (PBS)): 256# μg/mL; Minimum Biocidal Concentration (MBC) (≧99.9% kill) ([4]; pH 4 (Sal)): 4+ μg/mL; Minimum Biocidal Concentration (MBC) (≧99.9% kill) ([4]; pH 7 (PBS)): 512+ μg/mL; CT50 (concentration that results in survival of 50% of the cells) ([5]; pH 7 (PBS)): 4.6 mM
"CC(C)(CS(=O)(=O)O)C(=O)OCC(C)(C)N(Cl)Cl [Compound 625, 3-(2-(Dichloroamino)-2-methylpropoxy)-2,2-dimethyl-3-oxopropane-1-sulfonic acid]",,,2.6,16,8,4,
"CNS(=O)(=O)CC(C)(C)N(Cl)Cl [Compound 626, 2-(Dichloroamino)-N,2-dimethylpropane-1-sulfonamide]",,,,8,0.5,4,
"CC(=O)NS(=O)(=O)CC(C)(C)N(Cl)Cl [Compound 627, N-(2-(Dichloroamino)-2-methylpropylsulfonyl)acetamide]",,,,64,1,2,
"CC(C)(CC(=O)OCCS(=O)(=O)O)N(Cl)Cl [Compound 628, 2-(3-(Dichloroamino)-3-methylbutanoyloxy)ethanesulfonic acid]",,,,64,2,2,
"CC(C)(CS(=O)(=O)CCS(=O)(=O)O)N(Cl)Cl [Compound 630, 2-(2-(Dichloroamino)-2-methylpropylsulfonyl)ethanesulfonic acid]",,,,64,8,4,
"CC(=O)N1CCC(CS(=O)(=O)O)(N(Cl)Cl)CC1 [Compound 637, (1-Acetyl-4-(dichloroamino)piperidin-4-yl)methanesulfonic acid]",,,,128,4,16,

# From patent publication US8415497B2, “N-halogenated amino compounds and derivatives” (Novabay Pharmaceuticals, Inc., priority 2006, dated 2013)
